Patent US7595340B2, “Serotonin and norepinephrine reuptake inhibitor and uses thereof” (Wyeth, priority 2005, dated 2009)
Converted amounts (≈) assume the structure as drawn.

What was measured:
[1] = biological target: human serotonin transporter (Homo sapiens, UniProt P31645); assay: human serotonin transporter assay (in-house); type: binding; settings: initial experiments, in-house assays
Description: In initial experiments using in-house assays, 4-[2-dimethylamino-1-(4-hydroxy-phenyl)-ethyl]-tetrahydro-pyran-4-ol has been found active in a human serotonin transporter assay.

Hygroscopicity profile = type: physicochemical
Description: FIG. 2 provides a chart of the hygroscopicity profile of 4-[2-dimethylamino-1-(4-phenyl)-ethyl-tetrahydro-pyran-4-ol.

[2] = Solution stability in aqueous solutions; type: physicochemical; settings: room temperature, all aqueous solutions (pH 1.25-8.8)
pH-solubility profile = type: physicochemical; settings: aqueous solution, thermodynamic from solid
Description: FIG. 4 provides a chart of the pH - solubility profile of 4-[2-dimethylamino-1-(4-phenyl)-ethyl-tetrahydro-pyran-4-ol.

human serotonin transporter, sequence (P31645 whole entry): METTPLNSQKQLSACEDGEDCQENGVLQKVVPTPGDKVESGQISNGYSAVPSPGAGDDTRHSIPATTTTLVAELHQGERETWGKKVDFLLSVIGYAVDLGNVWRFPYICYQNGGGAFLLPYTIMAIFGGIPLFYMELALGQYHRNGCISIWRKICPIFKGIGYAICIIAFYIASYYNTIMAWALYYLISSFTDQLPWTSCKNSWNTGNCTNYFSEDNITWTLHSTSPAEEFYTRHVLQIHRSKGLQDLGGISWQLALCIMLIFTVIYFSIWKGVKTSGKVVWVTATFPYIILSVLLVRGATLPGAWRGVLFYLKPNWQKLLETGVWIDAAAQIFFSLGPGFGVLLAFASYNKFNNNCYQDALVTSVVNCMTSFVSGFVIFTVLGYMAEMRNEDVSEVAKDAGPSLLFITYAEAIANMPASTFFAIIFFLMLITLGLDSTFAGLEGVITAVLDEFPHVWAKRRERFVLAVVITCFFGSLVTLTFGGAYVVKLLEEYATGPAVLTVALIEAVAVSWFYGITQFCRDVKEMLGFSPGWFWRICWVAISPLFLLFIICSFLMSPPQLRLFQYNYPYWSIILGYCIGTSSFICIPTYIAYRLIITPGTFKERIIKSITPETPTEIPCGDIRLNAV

Compound: CN(C)CC(c1ccc(O)cc1)C1(O)CCOCC1 (stereo not drawn) [4-[2-Dimethylamino-1-(4-Hydroxy-Phenyl)-ethyl]-Tetrahydro-Pyran-4-ol]
- activity in human serotonin transporter assay [1]: active
- Hygroscopicity (Hygroscopicity profile): Non-hygroscopic
- Hygroscopicity, weight gain (Hygroscopicity profile; @ 70% RH): 2%
- Hygroscopicity, weight gain (Hygroscopicity profile; @ 90% RH, weight gain was lost when returned to 10% RH or 0% RH): 6%
- Solution Stability (time stable) [2]: at least 24 hours
- solubility (pH-solubility profile; pH 4.4, aqueous buffer, Final pH 4.40): 3910 µg/mL (≈ 14.7 mM)
- solubility (pH-solubility profile; pH 7.1, aqueous buffer, Final pH 7.10): 3470 µg/mL (≈ 13.1 mM)
- solubility (pH-solubility profile; pH 8.8, aqueous buffer, Final pH 8.80): 2960 µg/mL (≈ 11.2 mM)
- solubility (pH-solubility profile; simulated gastric fluid, Final pH 1.25): 13600 µg/mL (≈ 51.1 mM)
